The source of these data is patent US20250257055A1, “TERTIARY AMIDE DERIVATIVES SUBSTITUTED WITH 4-MEMBERED RING STRUCTURE” (Sumitomo Pharma Co., Ltd., priority 2024, published 2025).

Values after ≈ are worked out from the molar mass of the structure shown. Read-outs that look alike come from different tables or passages of the source. Bounds are passed on as bounds.

Data set [1] has as its target recombinant p300 (Homo sapiens (Human), UniProt Q09472). The data set is described as follows: HAT activity inhibition experiment (SensoLyte HAT(p300) Assay Kit). Type of data set: biochemical. The conditions noted are these: recombinant p300, histone H3 peptide, acetyl CoA. The procedure: The HAT activity inhibitory ability of HAT inhibitors was evaluated using SensoLyte HAT(p300) Assay Kit (ANASPEC, AS-72172). Specifically, 7.5 μL of the compound of Examples […] diluted with assay buffer was added to 7.5 μL of recombinant p300 solution diluted 10 times with assay buffer, and the mixture was incubated at room temperature for 10 minutes. 7.5 μL of acetyl CoA solution diluted 10 times with assay buffer and 15 μL of histone H3 peptide diluted 10 times with assay buffer were added thereto, and the mixture was incubated at 37° C. for 30 minutes. 37.5 μL of Stop Solution was added to stop the reaction. 75 μL of p300 Developer solution diluted 50 times with assay buffer was added, and the mixture was incubated at room temperature for 30 minutes under light-shielded conditions. The fluorescence at 513 nm when irradiated with 389 nm excitation light was measured using a multiplate reader.

In data set [2] the test system is G-401 cells. In words: Cell proliferation inhibition experiment using G-401 cells. It counts as cell-based. The following applies: Homo sapiens, 72 h, cultured for 3 days, CellTiter-Glo. The procedure: G-401 cells (derived from malignant rhabdoid tumor) were obtained from the American Type Culture Collection (ATCC). G-401 cells were cultured in McCoy's 5A medium containing 10% fetal bovine serum and 1% penicillin/streptomycin under conditions of 37° C. and 5% CO2.
500 cells per well were seeded in a 384-well plate. One day after seeding, Examples 1 to 35 were added so that the final concentration of DMSO was 0.1%, and the cells were cultured for 3 days. After the culture was completed, the cell viability was measured using CellTiter-Glo Luminescent Cell Viability Assay (Promega, G7570).

Data set [3] relates to Kuramochi cells. The data set is described as follows: Cell proliferation inhibition experiment using Kuramochi cells. It counts as cell-based. The conditions noted are these: 144 h, cultured for 6 days, CellTiter-Glo. The procedure:
Kuramochi cells (derived from ovarian cancer) were obtained from JCRB (Japanese Collection of Research Bioresources) cell bank. Kuramochi cells were cultured in RPMI-1640 medium containing 10% fetal bovine serum and 1% penicillin/streptomycin under conditions of 37° C. and 5% CO2.
500 cells per well were seeded in a 384-well plate. One day after seeding, Examples 3, 7, 9, 10, 11, 20, 23 to 25, and 30 to 34 were added so that the final concentration of DMSO was 0.1%, and the cells were cultured for 6 days. After the culture was completed, the cell viability was measured using CellTiter-Glo Luminescent Cell Viability Assay (Promega, G7570).

Data set [4] is described as follows: Solubility test. Type of data set: physicochemical. The conditions noted are these: for solubility: aqueous buffer, thermodynamic from solid. The procedure:
The solubility was measured for Examples 7, 10, 20, 23, 24, and 30 to 34, Comparative Example 1, and Comparative Example 2. The test compound was added to 10 mmol/L glycine buffer (pH 2.0) and 10 mmol/L citrate buffer (pH 3.0), and the mixture was stored in a thermostatic chamber at 5° C. After standing overnight, the mixture was filtered through a membrane filter, and the concentration of the filtrate was measured by HPLC.

Data set [5] is described as follows: Membrane permeability test (PAMPA). Type of data set: in vitro ADME. The procedure:
The membrane permeability of the test compound was tested by parallel artificial membrane permeability assay (PAMPA) as follows. 200 μL of System solution (pION Inc.) containing the test compound and 4 μL of GIT Lipid-0 (pION Inc.) were added to the donor plate. 200 μL of Acceptor Sink Buffer (pION Inc.) was added to the acceptor plate. Both plates were overlapped and incubated at 37° C. for 4 hours, after which the UV of the solutions on the acceptor side and donor side was measured using a UV plate reader (190-500 nm). Compounds with poor UV absorption were measured using LC-MS. The permeability coefficient Pe (10^−6 cm/sec) of the drug was calculated using the following equation.

The subject of data set [6] is G-401 xenograft. In words: Drug efficacy evaluation by intravenous administration using G-401 xenograft mice model. It counts as in vivo. The procedure:
G-401 cells (ATCC) were intradermally transplanted into 4-7-week-old BALB/cAnNCrj-nu/nu mice (CAnN.Cg-Foxn1/CrlCrlj, Jackson Laboratory Japan) at 5×10^5 cells/mouse. After confirming the engraftment of G-401 cells 10-40 days after transplantation, the test compound suspended in a solvent such as 10 mmol/L glycine buffer solution (pH 2.0) was administered via the tail vein at least once a week at a dose of 0.015-20 mg/kg. The tumor volume was measured over time from the start of administration, and the effect of tumor volume reduction by administration of the test compound was evaluated. The tumor volume can be calculated from the following equation using the minor axis and major axis of the tumor measured with an electronic caliper (Mitutoyo).
A control administration group administered with only a solvent such as 10 mmol/L glycine buffer solution (pH 2.0) and a test compound administration group were compared, and the antitumor effect was evaluated by calculating T/C from the following equation.

The mark [7] stands for this setting: 10 mmol/L citrate buffer (pH 3.0), 5° C., overnight, read-out: Solubility in pH 3.0 buffer.
Setting [8] is: 10 mmol/L glycine buffer (pH 2.0), 5° C., overnight, read-out: Solubility in pH 2.0 buffer.
Where [9] appears, read: pH 5.0, 37° C., read-out: pH 5.0 Pe.
Setting [10] is: pH 7.4, 37° C., read-out: pH 7.4 Pe.

recombinant p300, sequence (Q09472 whole entry): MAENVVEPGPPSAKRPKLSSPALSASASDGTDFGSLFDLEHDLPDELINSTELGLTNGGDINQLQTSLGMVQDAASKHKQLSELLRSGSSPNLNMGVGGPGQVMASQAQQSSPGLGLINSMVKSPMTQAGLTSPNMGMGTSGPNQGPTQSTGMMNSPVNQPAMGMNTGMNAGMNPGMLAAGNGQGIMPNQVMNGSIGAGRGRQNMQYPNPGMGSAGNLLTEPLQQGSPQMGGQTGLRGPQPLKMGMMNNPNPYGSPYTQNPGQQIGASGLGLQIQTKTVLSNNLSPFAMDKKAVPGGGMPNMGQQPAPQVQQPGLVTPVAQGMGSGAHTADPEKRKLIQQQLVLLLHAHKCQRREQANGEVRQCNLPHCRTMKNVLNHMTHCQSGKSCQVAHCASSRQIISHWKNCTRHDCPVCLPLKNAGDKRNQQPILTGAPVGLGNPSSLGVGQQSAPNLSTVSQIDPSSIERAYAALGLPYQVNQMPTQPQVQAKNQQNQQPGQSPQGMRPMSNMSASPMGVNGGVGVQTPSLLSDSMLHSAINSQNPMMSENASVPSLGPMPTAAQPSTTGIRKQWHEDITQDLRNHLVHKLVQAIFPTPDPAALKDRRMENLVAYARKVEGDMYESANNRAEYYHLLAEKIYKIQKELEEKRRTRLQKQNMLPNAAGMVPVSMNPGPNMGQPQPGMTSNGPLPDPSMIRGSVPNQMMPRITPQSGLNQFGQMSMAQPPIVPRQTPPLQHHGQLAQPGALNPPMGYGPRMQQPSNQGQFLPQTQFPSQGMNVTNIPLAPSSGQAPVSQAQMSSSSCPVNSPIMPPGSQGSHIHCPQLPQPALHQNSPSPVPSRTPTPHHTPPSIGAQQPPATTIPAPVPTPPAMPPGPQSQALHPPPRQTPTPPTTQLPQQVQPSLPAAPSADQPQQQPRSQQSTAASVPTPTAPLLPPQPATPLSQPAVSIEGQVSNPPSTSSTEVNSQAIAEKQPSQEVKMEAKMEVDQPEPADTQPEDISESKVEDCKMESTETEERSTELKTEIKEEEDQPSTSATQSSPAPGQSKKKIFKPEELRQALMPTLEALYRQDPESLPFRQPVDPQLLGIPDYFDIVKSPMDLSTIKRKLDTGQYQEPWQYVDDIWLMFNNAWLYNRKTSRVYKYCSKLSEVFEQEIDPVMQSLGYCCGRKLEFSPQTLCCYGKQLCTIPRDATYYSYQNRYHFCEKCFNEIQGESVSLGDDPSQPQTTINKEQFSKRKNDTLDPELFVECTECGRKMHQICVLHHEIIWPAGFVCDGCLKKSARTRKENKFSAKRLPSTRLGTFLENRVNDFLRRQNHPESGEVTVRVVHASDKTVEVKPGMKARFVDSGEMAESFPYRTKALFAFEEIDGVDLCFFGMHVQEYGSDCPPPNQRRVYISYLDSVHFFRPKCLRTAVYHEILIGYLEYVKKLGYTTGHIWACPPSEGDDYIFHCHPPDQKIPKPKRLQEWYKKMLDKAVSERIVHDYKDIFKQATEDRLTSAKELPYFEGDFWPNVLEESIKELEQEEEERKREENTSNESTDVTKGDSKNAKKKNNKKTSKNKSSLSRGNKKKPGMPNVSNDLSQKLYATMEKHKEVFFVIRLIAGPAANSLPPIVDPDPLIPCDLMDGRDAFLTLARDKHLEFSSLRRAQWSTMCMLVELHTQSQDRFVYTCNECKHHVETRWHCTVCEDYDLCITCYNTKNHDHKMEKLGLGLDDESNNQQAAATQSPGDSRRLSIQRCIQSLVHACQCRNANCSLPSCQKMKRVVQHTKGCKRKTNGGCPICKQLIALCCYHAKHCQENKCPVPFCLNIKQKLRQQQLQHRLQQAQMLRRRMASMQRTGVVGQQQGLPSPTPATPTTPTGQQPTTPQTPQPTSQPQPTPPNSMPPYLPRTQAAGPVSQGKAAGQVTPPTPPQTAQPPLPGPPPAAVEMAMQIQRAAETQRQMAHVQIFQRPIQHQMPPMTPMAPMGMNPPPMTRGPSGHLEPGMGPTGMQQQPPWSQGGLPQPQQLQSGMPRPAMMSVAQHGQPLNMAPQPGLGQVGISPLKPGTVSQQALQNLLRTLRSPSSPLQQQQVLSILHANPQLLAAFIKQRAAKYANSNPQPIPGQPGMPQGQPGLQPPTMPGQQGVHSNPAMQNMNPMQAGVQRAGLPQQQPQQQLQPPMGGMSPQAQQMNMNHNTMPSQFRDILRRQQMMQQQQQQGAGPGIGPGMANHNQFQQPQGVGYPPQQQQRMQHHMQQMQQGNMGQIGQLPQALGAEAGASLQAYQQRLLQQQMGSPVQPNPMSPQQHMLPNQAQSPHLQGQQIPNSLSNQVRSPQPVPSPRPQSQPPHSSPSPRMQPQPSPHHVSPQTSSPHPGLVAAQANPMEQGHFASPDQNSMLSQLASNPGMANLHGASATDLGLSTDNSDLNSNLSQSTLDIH

As for `CCn1cc(-c2ccc3c(c2)[C@H](F)C[C@]32NC(=O)N(CC(=O)N(Cc3ccc(F)cc3)C3(C(F)(F)F)CN(C)C3)C2=O)cn1` [Example 30, 2-[(1′S,3′R)-5′-(1-ethyl-1H-pyrazol-4-yl)-3′-fluoro-2,5-dioxo-2′,3′-dihydrospiro[imidazolidine-4,1′-inden]-1-yl]-N-[(4-fluorophenyl)methyl]-N-[1-methyl-3-(trifluoromethyl)azetidin-3-yl]acetamide], the IC50 came to 1.5 nM in data set [1], 2 nM in data set [2] and 10 nM in data set [3]. The solubility in data set [4] (setting [7]) was 1700 µg/mL (≈ 2.76 mM); in data set [4] (setting [8]), 8800 µg/mL (≈ 14.3 mM). Also, the values for the Papp at 4 h in data set [5] (setting [9]) and in data set [5] (setting [10]) were 30.6 ×10⁻⁶ cm/s and 35 ×10⁻⁶ cm/s, respectively.
Consider `CC(C)n1cc(-c2ccc3c(c2)[C@H](F)C[C@]32NC(=O)N(CC(=O)N(Cc3ccc(F)cn3)C3(C(F)(F)F)CN(C)C3)C2=O)cn1` [Example 33, 2-{(1′S,3′R)-3′-fluoro-2,5-dioxo-5′-[1-(propan-2-yl)-1H-pyrazol-4-yl]-2′,3′-dihydrospiro[imidazolidine-4,1′-inden]-1-yl}-N-[(5-fluoropyridin-2-yl)methyl]-N-[1-methyl-3-(trifluoromethyl)azetidin-3-yl]acetamide], for which the figures for the IC50 in data set [1], in data set [2] and in data set [3] were 0.2 nM, 4 nM and 24 nM, respectively. The solubility is 8600 µg/mL (≈ 13.6 mM) in data set [4] (setting [7]) and above 10000 µg/mL in data set [4] (setting [8]). Moreover, the Papp at 4 h in data set [5] (setting [9]) turned out to be 22.6 ×10⁻⁶ cm/s; in data set [5] (setting [10]) it was 27 ×10⁻⁶ cm/s.
For the compound `CCn1cc(-c2ccc3c(c2)[C@H](F)C[C@]32NC(=O)N(CC(=O)N(Cc3ccc(F)cn3)C3(C(F)(F)F)CN(C)C3)C2=O)cn1` [Example 32, 2-[(1′S,3′R)-5′-(1-ethyl-1H-pyrazol-4-yl)-3′-fluoro-2,5-dioxo-2′,3′-dihydrospiro[imidazolidine-4,1′-inden]-1-yl]-N-[(5-fluoropyridin-2-yl)methyl]-N-[1-methyl-3-(trifluoromethyl)azetidin-3-yl]acetamide], the values for the IC50 in data set [1], in data set [2] and in data set [3] were 0.4 nM, 5 nM and 53 nM, respectively. For the same compound, the solubility in data set [4] (setting [7]) and in data set [4] (setting [8]) was above 10000 µg/mL throughout. The Papp at 4 h in data set [5] (setting [9]) was determined as 15.4 ×10⁻⁶ cm/s; in data set [5] (setting [10]), 26.6 ×10⁻⁶ cm/s.
Consider `CC(C)n1cc(-c2ccc3c(c2)[C@H](F)C[C@]32NC(=O)N(CC(=O)N(Cc3ccc(F)cc3)C3(C(F)(F)F)CN(C)C3)C2=O)cn1` [Example 31, 2-{(1′S,3′R)-3′-fluoro-2,5-dioxo-5′-[1-(propan-2-yl)-1H-pyrazol-4-yl]-2′,3′-dihydrospiro[imidazolidine-4,1′-inden]-1-yl}-N-[(4-fluorophenyl)methyl]-N-[1-methyl-3-(trifluoromethyl)azetidin-3-yl]acetamide], for which the IC50 in data set [1] was found to be 1 nM; in data set [2] it was 1 nM; in data set [3], 8 nM. In addition, the solubility in data set [4] (setting [7]) was found to be 1400 µg/mL (≈ 2.22 mM); in data set [4] (setting [8]), 7100 µg/mL (≈ 11.3 mM). The values for the Papp at 4 h in data set [5] (setting [9]) and in data set [5] (setting [10]) were 31.3 ×10⁻⁶ cm/s and 34.9 ×10⁻⁶ cm/s, respectively.
In the case of `CN1CC(N(Cc2ccc(F)cn2)C(=O)CN2C(=O)N[C@]3(C[C@@H](F)c4cc(-c5cnn(C6CCC6)c5)ccc43)C2=O)(C(F)(F)F)C1` [Example 34, 2-[(1′S,3′R)-5′-(1-cyclobutyl-1H-pyrazol-4-yl)-3′-fluoro-2,5-dioxo-2′,3′-dihydrospiro[imidazolidine-4,1′-inden]-1-yl]-N-[(5-fluoropyridin-2-yl)methyl]-N-[1-methyl-3-(trifluoromethyl)azetidin-3-yl]acetamide], the IC50 in data set [1] came to 0.2 nM; in data set [2] it was 5 nM; in data set [3], 45 nM. The figures for the solubility in data set [4] (setting [7]) and in data set [4] (setting [8]) were 8100 µg/mL (≈ 12.6 mM) and above 10000 µg/mL, respectively. The Papp at 4 h in data set [5] (setting [9]) stood at 24.4 ×10⁻⁶ cm/s; in data set [5] (setting [10]) it was 34.9 ×10⁻⁶ cm/s.
`CNC(=O)Cn1cc(-c2ccc3c(c2)[C@H](F)C[C@]32NC(=O)N(CC(=O)N(Cc3ccc(F)cc3)[C@@H](C)C(F)(F)F)C2=O)cn1` [Comparative Example 1, reference compound]: the “Solubility in pH 3.0 buffer” value in data set [4] (10 mmol/L citrate buffer (pH 3.0), 5° C., overnight) is recorded as 0.005 mg/mL. The “Solubility in pH 2.0 buffer” value in data set [4] (10 mmol/L glycine buffer (pH 2.0), 5° C., overnight) is given as 0.002 mg/mL. Also, the figures for the solubility in data set [4] (setting [7]) and in data set [4] (setting [8]) were 5 µg/mL (≈ 0.00808 mM) and 2 µg/mL (≈ 0.00323 mM), respectively. The “solubility (in words)” value in data set [4] (pH 2.0 and pH 3.0 buffers) was “extremely low solubility”. In addition, the Papp at 4 h in data set [5] (setting [9]) was 21.3 ×10⁻⁶ cm/s; in data set [5] (setting [10]), 20.8 ×10⁻⁶ cm/s. Moreover, the “antitumor effect (in words)” value in data set [6] (G-401 xenograft model, intravenous administration) is “no antitumor effect”. In addition, in data set [6] (intravenous (tail vein), 0.015 mg/kg, 14 days), the T/C is −1.1%.
